The values below are quoted from earlier work in patent publication US4942167A, “Pharmaceutical compositions of piroxicam in aqueous solutions and process for their preparation” (Chiesi Farmaceutici S.p.A., priority 1988, dated 1990).

The conditions of this data set: in words, background.

On to `CN1C(C(=O)Nc2ccccn2)=C(O)c2ccccc2S1(=O)=O` [piroxicam, N-(2-pyridyl)-2-methyl-4-hydroxy-2H-1,2-benzothiazine-3-carboxyamido-1,1-dioxide], for which the water-solubility result is given as “poor”.
